The text below walks through data of paper PMC12434670 (Journal of Medicinal Chemistry, 2025).

Like-named read-outs stand apart in the source and are kept apart here.

In one series the test system is A/H5N1 pseudovirus. Particulars: read-out: EC50 against A/H5N1 pseudovirus; cited from earlier work.
For a further series, the system named is A/H5N1 virus. Conditions: read-out: EC50 against A/H5N1 virus; cited from earlier work.
Series [1] has as its system A/H1N1 virus A/PR/8/34 (PR8). As to the kind of experiment: microbe, parasite or virus in culture. Type of series: cell-based. Particulars: Influenza A virus, MDCK.
Series [2] deals with A/H1N1 virus A/Virginia/ATCC3/2009 (Virg09). As to the kind of experiment: microbe, parasite or virus in culture. Format: cell-based, influenza A virus. Particulars: Influenza A virus, MDCK.
Another series relates to A/H1N1 virus. As to the kind of experiment: microbe, parasite or virus in culture. Format: cell-based, influenza A virus. Conditions: Influenza A virus, H1N1, MDCK, read-out: Antiviral EC50 against A/H1N1 virus.
Series [3] has as its system A/H1N1 virus Virg09 in Calu-3 cells. As to the kind of experiment: microbe, parasite or virus in culture. Format: cell-based. Conditions: Influenza A virus, H1N1, Calu-3, 72 h, read-out: EC50 in Calu-3 cells infected with Virg09.
Series [4] has as its system A/H1N1 (Virg09) pseudovirus. As to the kind of experiment: organism not typed. Format: cell-based, influenza A virus.
In series [5] the test system is A/H5N1 (FL22, A/bald eagle/FL/W22-114/2022) pseudovirus. As to the kind of experiment: organism not typed. Type of series: cell-based, influenza A virus. Conditions: MDCK, 72 h, read-out: EC50 for A/H5N1 (FL22) pseudovirus entry.
For the next series, the target named is H1 HA (Influenza A virus, UniProt C3W5S1). As to the kind of experiment: cell-based.
Sequence of H1 HA (C3W5S1 18-344 limits assumed): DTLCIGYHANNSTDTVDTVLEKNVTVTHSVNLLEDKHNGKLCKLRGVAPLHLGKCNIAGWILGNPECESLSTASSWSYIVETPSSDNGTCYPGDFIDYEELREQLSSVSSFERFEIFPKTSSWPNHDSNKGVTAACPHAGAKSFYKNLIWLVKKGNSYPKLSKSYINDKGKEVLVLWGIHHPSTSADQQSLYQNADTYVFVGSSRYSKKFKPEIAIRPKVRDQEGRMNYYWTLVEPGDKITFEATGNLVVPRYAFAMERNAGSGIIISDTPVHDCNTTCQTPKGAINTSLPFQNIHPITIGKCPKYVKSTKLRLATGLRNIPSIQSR
Sequence of H1 HA (C3W5S1 345-566 limits assumed): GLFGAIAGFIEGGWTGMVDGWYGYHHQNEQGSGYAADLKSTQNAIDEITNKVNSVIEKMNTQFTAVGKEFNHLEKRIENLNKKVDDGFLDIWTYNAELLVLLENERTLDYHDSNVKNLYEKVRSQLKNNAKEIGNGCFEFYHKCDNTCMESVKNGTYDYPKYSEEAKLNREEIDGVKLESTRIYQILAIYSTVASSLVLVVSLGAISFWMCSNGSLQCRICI
The test system of series [6] is H5 HA (strain A/duck/Hunan/795/2002). Type of series: cell-based, influenza A virus.
For series [7], the system named is H1 HA protein (strain A/California/06/09). Format: biochemical, influenza A virus. Conditions: pH 5.2.
The test system of the next series is MDCK cells. Conditions: dog.
The next series can be described thus: in vitro. Particulars: dog.

Take `O=C(NCCc1cccs1)c1cc(F)cc(C(F)(F)F)c1` [Compound 20]: the EC50 with A/H5N1 pseudovirus was 220 nM.
With `Cc1cc(CNS(=O)(=O)c2ccc(C#N)cc2)c(C)s1` [Compound 21], in the series on A/H5N1 virus, the EC50 is 470 nM.
On to `CC(C)c1ccccc1NCCN1CCCCC1` [RL-007, reference compound], for which the EC50 in series [1] (read-out: Antiviral EC50 against A/H1N1 virus, PR8 strain, MTS) was 1400 nM; in [1] (read-out: Antiviral EC50 against A/H1N1 virus, PR8 strain, Microscopy), 1500 ± 100 nM; in series [2] (read-out: Antiviral EC50 against A/H1N1 virus, Virg09 strain, MTS) it was 610 ± 60 nM; in [2] (read-out: Antiviral EC50 against A/H1N1 virus, Virg09 strain, Microscopy), 690 ± 90 nM; in the series with A/H1N1 virus, 600 to 1500 nM; in [3], 530 nM. Also, the EC50 in series [4] (MDCK, 72 h, read-out: EC50 for A/H1N1 (Virg09) pseudovirus entry) is 79 nM; in series [5], 10000 nM; on H1 HA, 4100 nM. Besides, the “Fold higher activity against A/H1N1 than A/H5N1 pseudovirus” value in [4] is around 127 fold. The “Inhibition of H5 HA cell-cell fusion at 6.3 μM” value in [6] is “inactive”. Further, the “Inhibition of H5 HA cell-cell fusion at 25 μM” value in [6] is listed as “partially effective”. The “Inhibition of H5 HA cell-cell fusion at 100 μM” value in series [6] is reported as “complete inhibition”. Moreover, the “Binding of H1 HA to stem antibody C179 after acidic incubation (pH 5.2) in presence of compound” value in series [7] is “remained significantly higher”. Further, in the series on MDCK cells, the “Cytotoxicity MCC, Microscopy” value was above 40 µM. This compound also had a CC50 in “in vitro” of 33000 ± 5000 nM.
